Experiments:
[1] = system: triple-negative breast cancer cells; settings: sequential but not simultaneous application of erlotinib and doxorubicin, time interval of about 24 hours; cited from earlier work
[2] = system: CD95-HeLa cells; assay: Live-cell imaging with drug perfusion: CD95L-induced apoptosis under RL-optimized versus constant concentration trajectory; assay type: cell-based, human
Protocol: The experimental setup consisted of an automated live-cell microscope and infusion pumps for empty medium or CD95L stock solution placed inside a standard cell culture incubator. The microscope was combined with a surrounding, separable, autoclavable box for ensuring a sterile environment inside the incubator. Empty medium and the CD95L stock solution were guided through silicon tubes (inner diameter: 1 mm) connected to a t-shaped adapter piece. The t-adapter was connected with a microfluidic chip containing approximately 80,000 CD95-HeLa cells (human cervix carcinoma cell line overexpressing CD95 death receptors). Thereby, cells could be perfused by a mixture of CD95L stock solution and empty medium. For adjusting the CD95L concentration in each step of an experiment, a constant volume of 0.8 ml was infused. This volume comprised varying fractions of CD95L stock solution and empty medium. […] The total dose was set to 400 ng of CD95L according to a stock solution volume of 1.6 ml. Accordingly, cells could be perfused with CD95L at concentrations between zero and the stock concentration. During the experiment, images of the perfused cells were recorded every 3 minutes using the live-cell microscope. […]

C#Cc1cccc(Nc2ncnc3cc(OCCOC)c(OCCOC)cc23)c1 [erlotinib]
cell death [1]: maximizes cell death

COc1cccc2c1C(=O)c1c(O)c3c(c(O)c1C2=O)C[C@@](O)(C(=O)CO)C[C@@H]3O[C@H]1C[C@H](N)[C@H](O)[C@H](C)O1 [doxorubicin]
cell death [1]: maximizes cell death

B1: CD95L: CD95 cell death ligand; binds CD95 death receptors and induces apoptosis (protein, UniProt P48023 130-281, looked up)
Tumor necrosis factor ligand …: QIGHPSPPPEKKELRKVAHLTGKSNSRSMPLEWEDTYGIVLLSGVKYKKGGLVINETGLYFVYSKVYFRGQSCNNLPLSHKVYMRNSKYPQDLVMMEGKMMSYCTTGQMWARSSYLGAVFNLTSADHLYVNVSELSLVNFEESQTFFGLYKL
cell death kinetics (apoptotic cell fractions) ([2]; first RL-optimized CD95L concentration trajectory vs constant 50 ng/ml, same total dose 400 ng, 180 minutes, FIG. 13F): substantially accelerated cell death kinetics | cell death (apoptotic cell fractions) ([2]; optimized CD95L trajectory from second RL iteration vs constant concentration or first-iteration trajectory, total dose 400 ng, FIG. 14G): accelerated cell death

— US20220406434A1, “METHOD AND SYSTEM FOR EVALUATING OPTIMIZED CONCENTRATION TRAJECTORIES FOR DRUG ADMINISTRATION” (DEUTSCHES KREBSFORSCHUNGSZENTRUM STIFTUNG DES OEFFENTLICHEN …, priority 2019, published 2022)
